Data published in ChEMBL document CHEMBL1255477, “In vitro properties of BAL30072, a novel siderophore sulfactam with activity against multiresistant gram-negative bacilli” (Antimicrob Agents Chemother, 2010).
In brackets after ≈: the same amount, converted by molar mass. Activity calls are given as the source filed them. The rule behind the calls is not given here.

Legend:
Klebsiella aerogenes = experiment: Antimicrobial activity against Enterobacter aerogenes by broth dilution method; type: functional
Citrobacter freundii = experiment: Antimicrobial activity against Citrobacter freundii by broth dilution method; type: functional
Providencia stuartii = experiment: Antimicrobial activity against Providencia stuartii by broth dilution method; type: functional
Proteus vulgaris = experiment: Antimicrobial activity against Proteus vulgaris by broth dilution method; type: functional
Providencia rettgeri [1] = experiment: Antimicrobial activity against Providencia rettgeri by broth dilution method; type: functional
Escherichia coli [2] = experiment: Antimicrobial activity against Escherichia coli by broth dilution method; type: functional
Klebsiella oxytoca [3] = experiment: Antimicrobial activity against Klebsiella oxytoca by broth dilution method; type: functional
Klebsiella pneumoniae [4] = experiment: Antimicrobial activity against Klebsiella pneumoniae by broth dilution method; type: functional
Proteus penneri = experiment: Antimicrobial activity against Proteus penneri by broth dilution method; type: functional
Proteus mirabilis = experiment: Antimicrobial activity against Proteus mirabilis by broth dilution method; type: functional
Serratia marcescens [5] = experiment: Antimicrobial activity against Serratia marcescens by broth dilution method; type: functional
Acinetobacter sp. = experiment: Antimicrobial activity against Acinetobacter sp. by broth dilution method; type: functional
Burkholderia sp. = experiment: Antimicrobial activity against Burkholderia sp. by broth dilution method; type: functional
[6] = system: Stenotrophomonas maltophilia; experiment: Antimicrobial activity against Stenotrophomonas maltophilia by broth dilution method; type: functional
Enterobacteriaceae = experiment: Antimicrobial activity against Enterobacteriaceae by broth dilution method; type: functional
Pseudomonas aeruginosa [7] = experiment: Antimicrobial activity against Pseudomonas aeruginosa by broth dilution method; type: functional
Acinetobacter baumannii [8] = experiment: Antimicrobial activity against Acinetobacter baumannii HPA74510 assessed as number of passages required for MIC to rise above 4 times original MIC; type: functional
Acinetobacter junii = experiment: Antimicrobial activity against Acinetobacter junii 15218 assessed as number of passages required for MIC to rise above 4 times original MIC; type: functional
Klebsiella pneumoniae [9] = experiment: Antimicrobial activity against Klebsiella pneumoniae 1338665 assessed as number of passages required for MIC to rise above 4 times original MIC; type: functional
Pseudomonas aeruginosa [10] = experiment: Antimicrobial activity against Pseudomonas aeruginosa BA assessed as number of passages required for MIC to rise above 4 times original MIC; type: functional
Pseudomonas aeruginosa [11] = experiment: Antimicrobial activity against Pseudomonas aeruginosa 527 assessed as number of passages required for MIC to rise above 4 times original MIC; type: functional
[12] = system: Stenotrophomonas maltophilia; experiment: Antimicrobial activity against Stenotrophomonas maltophilia 1AC736 assessed as number of passages required for MIC to rise above 4 times original MIC; type: functional
Escherichia coli [13] = experiment: Antimicrobial activity against Escherichia coli HB101 harboring beta-lactamase TEM-5 by broth dilution method; type: functional
Escherichia coli [14] = experiment: Antimicrobial activity against Escherichia coli K802N harboring beta-lactamase TEM-3 by broth dilution method; type: functional
Escherichia coli [15] = experiment: Antimicrobial activity against Escherichia coli CF102 harboring beta-lactamase TEM-3 by broth dilution method; type: functional
Klebsiella pneumoniae [16] = experiment: Antimicrobial activity against Klebsiella pneumoniae 1357E harboring beta-lactamase TEM-10 by broth dilution method; type: functional
Escherichia coli [17] = experiment: Antimicrobial activity against Escherichia coli A harboring beta-lactamase CTX-M 15 by broth dilution method; type: functional
Klebsiella pneumoniae [18] = experiment: Antimicrobial activity against Klebsiella pneumoniae 26768WU harboring beta-lactamase SHV-5 by broth dilution method; type: functional
Klebsiella oxytoca [19] = experiment: Antimicrobial activity against Klebsiella oxytoca 1028E harboring beta-lactamase K1 by broth dilution method; type: functional
Serratia marcescens [20] = experiment: Antimicrobial activity against Serratia marcescens S6 harboring beta-lactamase SME-1.AmpC by broth dilution method; type: functional
Escherichia coli [21] = experiment: Antimicrobial activity against Escherichia coli nmcA harboring beta-lactamase NMCA by broth dilution method; type: functional
Klebsiella pneumoniae [22] = experiment: Antimicrobial activity against Klebsiella pneumoniae CRE harboring beta-lactamase KPC-2 by broth dilution method; type: functional
Klebsiella pneumoniae [23] = experiment: Antimicrobial activity against Klebsiella pneumoniae YC harboring beta-lactamase KPC-2,TEM-1and SHV-2 by broth dilution method; type: functional
Acinetobacter baumannii [24] = experiment: Antimicrobial activity against Acinetobacter baumannii HPA74510 harboring beta-lactamase IMP-4 by broth dilution method; type: functional
Pseudomonas aeruginosa [25] = experiment: Antimicrobial activity against Pseudomonas aeruginosa HPA10586 harboring beta-lactamase VIM-1 by broth dilution method; type: functional
Providencia rettgeri [26] = experiment: Antimicrobial activity against Providencia rettgeri J96 harboring beta-lactamase IMP-1 by broth dilution method; type: functional
[27] = system: Stenotrophomonas maltophilia; experiment: Antimicrobial activity against Stenotrophomonas maltophilia B715 harboring beta-lactamase L1and L2 by broth dilution method; type: functional
Escherichia coli [28] = experiment: Antimicrobial activity against Escherichia coli Libyien harboring beta-lactamase CMY-2 by broth dilution method; type: functional
[29] = Inhibition of Escherichia coli Penicillin-binding protein 1A
[30] = Inhibition of Escherichia coli Penicillin-binding protein 1B
[31] = Inhibition of Escherichia coli Penicillin-binding protein 2
[32] = Inhibition of Escherichia coli Penicillin-binding protein 3
Acinetobacter baumannii [33] = experiment: Antimicrobial activity against Acinetobacter baumannii HPA 4737 harboring beta-lactamase OXA-26 by broth dilution method; type: functional
Acinetobacter baumannii [34] = experiment: Antimicrobial activity against Acinetobacter baumannii HPA I-16 harboring beta-lactamase OXA-27 by broth dilution method; type: functional
Escherichia coli [35] = experiment: Antimicrobial activity against Escherichia coli W3110 assessed as appearance of spheroplast at 64 ug/mL after 3 hrs by phase-contrast microscopy; type: functional, organism-based
Escherichia coli [36] = experiment: Antimicrobial activity against Escherichia coli W3110 assessed as appearance of long filaments at 64 ug/mL after 3 hrs by phase-contrast microscopy; type: functional, organism-based
[37] = Inhibition of beta-lactamase KPC-2
[38] = Inhibition of Beta-lactamase IMP1
AmpC = AmpC (Escherichia coli, UniProt Q83TT7); experiment: Inhibition of Escherichia coli ATCC 25922 AmpC
AmpC, sequence (Q83TT7 whole entry): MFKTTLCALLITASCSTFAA

Acinetobacter baumannii [39] = experiment: Antimicrobial activity against Acinetobacter baumannii HPA 327009 harboring beta-lactamase OXA-25 by broth dilution method; type: functional
Pseudomonas aeruginosa [40] = experiment: microbe, parasite or virus in culture; conditions: 18S/H

## CO/N=C(\C(=O)N[C@@H]1C(=O)N2C(C(=O)[O-])=C(C[N+]3(C)CCCC3)CS[C@H]12)c1csc(N)n1
Klebsiella aerogenes
  MIC90: 16 µg/mL (≈ 33.3 µM)
Citrobacter freundii
  MIC50: 1 µg/mL (≈ 2.08 µM)
  MIC90: 4 µg/mL (≈ 8.32 µM)
Providencia stuartii
  MIC50: ≤ 0.06 µg/mL
  MIC90: > 32 µg/mL
Proteus vulgaris
  MIC50: 0.125 µg/mL (≈ 0.26 µM)
  MIC90: 1 µg/mL (≈ 2.08 µM)
Providencia rettgeri [1]
  MIC50: ≤ 0.06 µg/mL
  MIC90: > 32 µg/mL
Escherichia coli [2]
  MIC50: 8 µg/mL (≈ 16.6 µM)
  MIC90: > 32 µg/mL
Klebsiella oxytoca [3]
  MIC50: 2 µg/mL (≈ 4.16 µM)
  MIC90: 4 µg/mL (≈ 8.32 µM)
Klebsiella pneumoniae [4]
  MIC50: 4 µg/mL (≈ 8.32 µM)
  MIC90: > 32 µg/mL
Proteus penneri
  MIC50: 0.125 µg/mL (≈ 0.26 µM)
  MIC90: 1 µg/mL (≈ 2.08 µM)
Proteus mirabilis
  MIC50: 0.125 µg/mL (≈ 0.26 µM)
  MIC90: 1 µg/mL (≈ 2.08 µM)
Serratia marcescens [5]
  MIC50: 1 µg/mL (≈ 2.08 µM)
  MIC90: 2 µg/mL (≈ 4.16 µM)
Acinetobacter sp.
  MIC50: 32 µg/mL (≈ 66.6 µM)
  MIC90: > 32 µg/mL
Burkholderia sp.
  MIC50: 8 µg/mL (≈ 16.6 µM)
  MIC90: 16 µg/mL (≈ 33.3 µM)
[6]
  MIC50: 16 µg/mL (≈ 33.3 µM)
  MIC90: > 32 µg/mL
Enterobacteriaceae
  MIC50: 4 µg/mL (≈ 8.32 µM)
Pseudomonas aeruginosa [7]
  MIC50: 16 µg/mL (≈ 33.3 µM)
  MIC90: 32 µg/mL (≈ 66.6 µM)
Acinetobacter baumannii [8]
  Activity: inactive
Acinetobacter junii
  Activity: 14 passages
Klebsiella pneumoniae [9]
  Activity: inactive
Pseudomonas aeruginosa [10]
  Activity: 2 passages
Pseudomonas aeruginosa [11]
  Activity: 1 passages
[12]
  Activity: 1 passages

## C[C@H]1[C@H](NC(=O)/C(=N\OC(C)(C)C(=O)O)c2csc(N)n2)C(=O)N1S(=O)(=O)O [AZTREONAM]
Klebsiella aerogenes
  MIC50: 4 µg/mL (≈ 9.19 µM)
  MIC90: > 32 µg/mL
Citrobacter freundii
  MIC: > 32 µg/mL
  MIC50: > 32 µg/mL
  MIC90: > 32 µg/mL
Escherichia coli [2]
  MIC50: > 32 µg/mL
  MIC90: > 32 µg/mL
Klebsiella oxytoca [3]
  MIC50: 16 µg/mL (≈ 36.7 µM)
  MIC90: > 32 µg/mL
Acinetobacter sp.
  MIC50: > 32 µg/mL
  MIC90: > 32 µg/mL
Escherichia coli [13]
  MIC: 32 µg/mL (≈ 73.5 µM)
Escherichia coli [14]
  MIC: > 32 µg/mL
Escherichia coli [15]
  MIC: 32 µg/mL (≈ 73.5 µM)
Klebsiella pneumoniae [16]
  MIC: > 32 µg/mL
Escherichia coli [17]
  MIC: > 32 µg/mL
Klebsiella pneumoniae [18]
  MIC: > 32 µg/mL
Klebsiella oxytoca [19]
  MIC: > 32 µg/mL
Serratia marcescens [20]
  MIC: 16 µg/mL (≈ 36.7 µM)
Escherichia coli [21]
  MIC: > 32 µg/mL
Klebsiella pneumoniae [22]
  MIC: > 32 µg/mL
Klebsiella pneumoniae [23]
  MIC: > 32 µg/mL
Acinetobacter baumannii [24]
  MIC: 32 µg/mL (≈ 73.5 µM)
Pseudomonas aeruginosa [25]
  MIC: 16 µg/mL (≈ 36.7 µM)
Providencia rettgeri [26]
  MIC: 2 µg/mL (≈ 4.59 µM)
[27]
  MIC: 32 µg/mL (≈ 73.5 µM)
Escherichia coli [28]
  MIC: 16 µg/mL (≈ 36.7 µM)
[29]
  IC50: > 50 µM
[30]
  IC50: > 50 µM
[31]
  IC50: > 50 µM
[32]
  IC50: 0.023 µM
Acinetobacter baumannii [33]
  MIC: 32 µg/mL (≈ 73.5 µM)
Acinetobacter baumannii [34]
  MIC: 32 µg/mL (≈ 73.5 µM)
Escherichia coli [35]
  Activity: Active
Escherichia coli [36]
  Activity: Active
[37]
  IC50: > 2500 µM
[38]
  IC50: 1100 µM
AmpC
  IC50: 0.06 µM
Acinetobacter baumannii [39]
  MIC: 16 µg/mL (≈ 36.7 µM)
Pseudomonas aeruginosa [40]
  MIC: > 32 µg/mL
